BindingDB's records for doi:10.1021/jm101104z (University of Ljubljana, 2011)

Key:
[1] = molecular target: 17beta-hydroxysteroid dehydrogenase type 1 (Homo sapiens); experiment: Displacement of [3H]estrone human recombinant 17beta-HSD1 expressed in Escherichia coli BL21 (DE3)-RIL by scintillation counting in presence of bacterial homogenate
[2] = molecular target: 17beta-hydroxysteroid dehydrogenase type 1 (Homo sapiens); experiment: Displacement of [3H]estrone human recombinant 17beta-HSD1 expressed in Escherichia coli BL21 (DE3)-RIL by competitive inhibition assay in presence of bacterial homogenate
[3] = molecular target: 17beta-hydroxysteroid dehydrogenase type 1 (Homo sapiens); experiment: Inhibition of 17beta-HSD1

| Compound | IC50 [1] [µM] | Ki [2] [µM] | IC50 [3] [µM] |
| --- | --- | --- | --- |
| CC(=O)c1cc2ccc(-c3ccc(O)cc3)cc2oc1=O [3-Acetyl-7-(4-hydroxyphenyl)-2H-chromen-2-one] | 0.27 | 0.143 | – |
| COc1ccc(-c2ccc3cc(C(C)=O)c(=O)oc3c2)cc1 [3-Acetyl-7-(4-methoxyphenyl)-2H-chromen-2-one] | 1.14 | 0.585 | – |
| COc1cc(-c2nc3sc4c(O)cccc4c3c(=O)n2Cc2ccccc2)c(Br)c(OC)c1OC [3-Benzyl-2-(2-bromo-3,4,5-trimethoxy-phenyl)-8-hydroxy-3H-benzo[4,5]thieno[2,3-d]pyrimidin-4-one] | – | – | 0.005 |

Other lines, results leading:

| IC50 [1] [µM] | Ki [2] [µM] | IC50 [3] [µM] | Compound |
| --- | --- | --- | --- |
| 0.36 | 0.173 | – | CC(=O)c1cc2ccc(OS(=O)(=O)C(F)(F)F)cc2oc1=O [3-Acetyl-2-oxo-2H-chromen-7-yl trifluoromethanesulfonate] |
| 1.24 | 0.585 | – | CC(=O)c1cc2ccc(-c3ccc(C)cc3)cc2oc1=O [3-Acetyl-7-para-tolyl-2H-chromen-2-one] |
